Tests used:
[1] = Average particle size and polydispersity index of lipid nanoparticles (dynamic light scattering); type: physicochemical
Description: (§1) The average particle size (number average value), ζ-average particle size, and polydispersity index (PdI) of the lipid nanoparticles in PBS(-) (pH 7.4), and the zeta potential in 10 mM HEPES buffer (pH 7.4) were measured using an analyzer "Zetasizer Nano ZS ZEN3600" (manufactured by Malvern) utilizing dynamic light scattering.

[2] = Zeta potential of lipid nanoparticles; type: physicochemical
Description: as §1

[3] = Encapsulation rate of lipid nanoparticles (Ribogreen); type: physicochemical
In short: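 Ribogreen fluorescence (Ex/Em 500/525 nm) measured after mixing sample 1:1 with 10 mM HEPES pH 7.4 buffer with or without Triton X-100. mRNA quantified from a calibration curve of known mRNA dilutions; encapsulation rate (%) calculated from Triton(+) versus Triton(−) signals.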

[4] = system: liver; test: Fluc activity in the liver of mice administered Fluc mRNA-loaded lipid nanoparticles; type: in vivo, BALB/c mice
Description: Lipid nanoparticles were administered to mice by intravenous injection into the tail vein using a 27G needle. Unless otherwise specified, BALB/c mice (4 to 5 weeks old, female) were used.
First, BALB/c mice (female, 4 weeks old) were intravenously injected with lipid nanoparticles encapsulating Fluc mRNA (Fluc mRNA-loaded lipid nanoparticles) at a dose of 0.1 mg mRNA/kg. Six hours after intravenous injection, the mice were euthanized, each tissue was collected, frozen in liquid nitrogen, and stored at -80°C. The tissues were homogenized in passive lysis buffer (manufactured by Promega) using a bead-type cell disruptor (Micro Smash MS-100R, manufactured by TOMY Seiko). Tissue debris was removed by centrifugation, and the supernatant was collected. Fluc activity in the supernatant was measured using the Luciferase Assay System (E1500, manufactured by Promega) according to the manufacturer's protocol. Luminescence was measured using a luminometer (Luminescencer-PSN, manufactured by ATTO). Protein concentration was determined using a commercially available assay kit (BCA Protein Assay Kit, manufactured by Pierce). Fluc activity was expressed as relative light units (RLU) per mg of protein.
Subsequently, lipid nanoparticles encapsulating Fluc mRNA prepared using TxT-5-5A10, TxT-5-5A12, TxT-5-5A12β, TxT-5-5A14, and TxT-5-5A16 were administered to mice to evaluate luciferase expression levels (Fluc activity) in various tissues. Specifically, each Fluc mRNA-loaded lipid nanoparticle was administered to Balb/c mice at a dose of 0.1 mg mRNA/kg. Six hours after administration, the mice were euthanized, and their organs were collected to measure Fluc activity (RLU/mg protein) (N = 2 or 4).

[5] = system: liver; test: EGFP expression in liver tissue sections of mice administered EGFP mRNA-loaded lipid nanoparticles (confocal microscopy); type: in vivo, Balb/c mice; details: Example 27, Fig. 6; EGFP mRNA-loaded lipid nanoparticles TxT/DSPC/chol/PEG-DMG=50/3/47/1.5 (mol%); 24 hours post-administration
In short: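 Balb/c mice received EGFP mRNA-loaded lipid nanoparticles at 0.2 mg mRNA/kg, with DyLight-649 tomato lectin given i.v. at 40 µg/mouse at 23 h 50 min to mark vascular endothelium. Livers taken at 24 h were sectioned, Hoechst 33342-stained (1 µg/mL), and imaged by confocal laser scanning microscopy.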

[6] = Table 1, Fluc mRNA-loaded lipid nanoparticles, TxT/DSPC/chol/PEG-DMG=50/15/35/1.5 (mol%)
[7] = Table 2, Fluc mRNA-loaded lipid nanoparticles, TxT-5-5A16/DSPC/chol/PEG-DMG=50/X/50-X/1.5 (mol%), DSPC concentration 3 mol %
[8] = Table 2, Fluc mRNA-loaded lipid nanoparticles, TxT-5-5A16/DSPC/chol/PEG-DMG=50/X/50-X/1.5 (mol%), DSPC concentration 6 mol %
[9] = Table 2, Fluc mRNA-loaded lipid nanoparticles, TxT-5-5A16/DSPC/chol/PEG-DMG=50/X/50-X/1.5 (mol%), DSPC concentration 9 mol %
[10] = Table 2, Fluc mRNA-loaded lipid nanoparticles, TxT-5-5A16/DSPC/chol/PEG-DMG=50/X/50-X/1.5 (mol%), DSPC concentration 12 mol %
[11] = Table 2, Fluc mRNA-loaded lipid nanoparticles, TxT-5-5A16/DSPC/chol/PEG-DMG=50/X/50-X/1.5 (mol%), DSPC concentration 15 mol %
[12] = Table 3, Fluc mRNA-loaded lipid nanoparticles, TxT/DSPC/chol/PEG-DMG=50/3/47/1.5 (mol%)
[13] = Table 5, EGFP mRNA-loaded lipid nanoparticles, TxT/DSPC/chol/PEG-DMG=50/3/47/1.5 (mol%), total flow rate 3.0 mL/min
[14] = Example 23, Fig. 2A, TxT-5-5A16/DSPC/chol/PEG-DMG=50/X/50-X/1.5 (mol%), 0.1 mg mRNA/kg, six hours
[15] = Table 6 (Example 28), Fluc mRNA-loaded lipid nanoparticles, TxT/DSPC/chol/PEG-DMG=50/3/47/1.5 (mol%)
[16] = Table 7, hEPO mRNA-loaded lipid nanoparticles, TxT/DSPC/chol/PEG-DMG=50/3/47/1.5, SM-102/DSPC/chol/PEG-DMG=50/10/40/1.5 (mol%)
[17] = Table 8 (Example 32), lipid nanoparticles for TTR-targeted genome editing, Cas9-mRNA and TTR-gRNA 1:2 (N/P = 6.0), TxT/DSPC/chol/PEG-DMG = 50/3/47/1.5 (mol%)

CCCCCCCCN(CCCCCCCC)C(=O)CCCC(=O)OCC(COC(=O)CCCC(=O)N(CCCCCCCC)CCCCCCCC)(COC(=O)CCCC(=O)N(CCCCCCCC)CCCCCCCC)NC(=O)CCN1CCCCC1 [TxT-5-5A16, 2-(((5-(dioctylamino)-5-oxopentanoyl)oxy)methyl)-2-(3-(piperidin-1-yl)propanamido)propane-1,3-diyl bis(5-(dioctylamino)-5-oxopentanoate)]
Pdl [1, 6]: 0.11
number average particle size [1, 6]: 61.0 nm
ζ-average particle size [1, 6]: 85.6 nm
Pdl [1, 7]: 0.0
number average particle size [1, 7]: 93.3 nm
ζ-average particle size [1, 7]: 114.0 nm
Pdl [1, 8]: 0.04
number average particle size [1, 8]: 78.6 nm
ζ-average particle size [1, 8]: 96.8 nm
Pdl [1, 9]: 0.08
number average particle size [1, 9]: 66.3 nm
ζ-average particle size [1, 9]: 90.2 nm
Pdl [1, 10]: 0.07
number average particle size [1, 10]: 64.4 nm
ζ-average particle size [1, 10]: 85.1 nm
Pdl [1, 11]: 0.14
number average particle size [1, 11]: 60.8 nm
ζ-average particle size [1, 11]: 88.3 nm
Pdl [1, 12]: 0.03
number average particle size [1, 12]: 93.3 nm
ζ-average particle size [1, 12]: 114.0 nm
Pdl [1, 13]: 0.04
number average particle size [1, 13]: 112.5 nm
ζ-average particle size [1, 13]: 132.4 nm
ζ-potential [2, 6]: -3.3 mV
ζ-potential [2, 7]: -2.7 mV
ζ-potential [2, 8]: -2.4 mV
ζ-potential [2, 9]: -2.2 mV
ζ-potential [2, 10]: -1.9 mV
ζ-potential [2, 11]: -4.1 mV
ζ-potential [2, 12]: -2.7 mV
ζ-potential [2, 13]: -8.4 mV
mRNA concentration [3, 6]: 0.020 µg/µL
mRNA encapsulation rate [3, 6]: 96.7%
mRNA concentration [3, 7]: 0.023 µg/µL
mRNA encapsulation rate [3, 7]: 98.8%
mRNA concentration [3, 8]: 0.024 µg/µL
mRNA encapsulation rate [3, 8]: 98.9%
mRNA concentration [3, 9]: 0.024 µg/µL
mRNA encapsulation rate [3, 9]: 98.3%
mRNA concentration [3, 10]: 0.024 µg/µL
mRNA encapsulation rate [3, 10]: 97.0%
mRNA concentration [3, 11]: 0.020 µg/µL
mRNA encapsulation rate [3, 11]: 95.6%
mRNA concentration [3, 12]: 0.023 µg/µL
mRNA encapsulation rate [3, 12]: 98.8%
mRNA concentration [3, 13]: 0.022 µg/µL
mRNA encapsulation rate [3, 13]: 99.2%
Fluc activity in the liver ([4]; Example 22, Fig. 1, TxT/DSPC/chol/PEG-DMG=50/15/35/1.5 (mol%), 0.1 mg mRNA/kg intravenous, six hours after administration, comparison among TxT lipids): highest Fluc activity in the liver
Effect of DSPC content on Fluc activity in the liver [4, 14]: Fluc activity increased as the DSPC content decreased
Fluc activity in the liver, 3 mol% DSPC compared to 15 mol% DSPC [4, 14]: approximately 10 times
fluorescence of EGFP in the liver tissues [5]: not detectable

CCCCCCC(CCCC)CNC(=O)CCCC(=O)OCC(COC(=O)CCCC(=O)NCC(CCCC)CCCCCC)(COC(=O)CCCC(=O)NCC(CCCC)CCCCCC)NC(=O)CCN1CCCCC1 (stereo not drawn) [TxT-5-5A12β, 2-(((5-((2-butyloctyl)amino)-5-oxopentanoyl)oxy)methyl)-2-(3-(piperidin-1-yl)propanamido)propane-1,3-diyl bis(5-((2-butyloctyl)amino)-5-oxopentanoate)]
average particle diameter, comparison among TxT lipids ([1]; Example 32, Table 8, lipid nanoparticles for TTR-targeted genome editing): largest
Pdl [1, 6]: 0.08
number average particle size [1, 6]: 82.8 nm
ζ-average particle size [1, 6]: 111.9 nm
Pdl [1, 12]: 0.08
number average particle size [1, 12]: 72.8 nm
ζ-average particle size [1, 12]: 96.0 nm
Pdl [1, 13]: 0.05
number average particle size [1, 13]: 81.9 nm
ζ-average particle size [1, 13]: 104.0 nm
Pdl [1, 15]: 0.06
number average particle size [1, 15]: 71.2 nm
ζ-average particle size [1, 15]: 92.0 nm
Pdl [1, 16]: 0.10
number average particle size [1, 16]: 66.9 nm
ζ-average particle size [1, 16]: 88.9 nm
Pdl [1, 17]: 0.02
number average particle size [1, 17]: 71.3 nm
ζ-average particle size [1, 17]: 87.8 nm
ζ-potential [2, 6]: -6.0 mV
ζ-potential [2, 12]: -5.6 mV
ζ-potential [2, 13]: -7.8 mV
ζ-potential [2, 15]: -8.4 mV
ζ-potential [2, 16]: -3.0 mV
ζ-potential [2, 17]: -3.8 mV
mRNA concentration [3, 6]: 0.024 µg/µL
mRNA encapsulation rate [3, 6]: 97.0%
mRNA concentration [3, 12]: 0.023 µg/µL
mRNA encapsulation rate [3, 12]: 99.5%
mRNA concentration [3, 13]: 0.016 µg/µL
mRNA encapsulation rate [3, 13]: 99.1%
mRNA concentration [3, 15]: 0.020 µg/µL
mRNA encapsulation rate [3, 15]: 98.0%
mRNA concentration [3, 16]: 0.017 µg/µL
mRNA encapsulation rate [3, 16]: 99.5%
mRNA concentration [3, 17]: 0.412 µg/µL
mRNA encapsulation rate [3, 17]: 99.1%
Fluc activity in the liver at 6, 24, and 48 hours after administration ([4]; Example 28, Fig. 7, TxT-5-5A12β versus TxT-5-5A14 nanoparticles, 50/3/47/1.5 (mol%), N = 3): comparable levels of gene expression at all time points
fluorescence of EGFP in the liver tissues [5]: fluorescence of EGFP was observed
gene expression in hepatocytes [5]: notably high levels of gene expression

From EP4722195A1, “PH-SENSITIVE CATIONIC LIPID AND LIPID NANOPARTICLES” (National University Corporation Hokkaido University, priority 2023, dated 2024)
